Assay results taken from ChEMBL document CHEMBL3804784, “Sulfatase inhibitors for recidivist breast cancer treatment: A chemical review” (Eur J Med Chem, 2016).

What was measured:
Steryl-sulfatase [1] = target: T1, Steryl-sulfatase (Homo sapiens, UniProt P08842); experiment: Reversible inhibition of recombinant human estrone sulfatase using 4-methylumbelliferyl sulfate as substrate by Hanes plot analysis
T1 sequence (P08842 whole entry): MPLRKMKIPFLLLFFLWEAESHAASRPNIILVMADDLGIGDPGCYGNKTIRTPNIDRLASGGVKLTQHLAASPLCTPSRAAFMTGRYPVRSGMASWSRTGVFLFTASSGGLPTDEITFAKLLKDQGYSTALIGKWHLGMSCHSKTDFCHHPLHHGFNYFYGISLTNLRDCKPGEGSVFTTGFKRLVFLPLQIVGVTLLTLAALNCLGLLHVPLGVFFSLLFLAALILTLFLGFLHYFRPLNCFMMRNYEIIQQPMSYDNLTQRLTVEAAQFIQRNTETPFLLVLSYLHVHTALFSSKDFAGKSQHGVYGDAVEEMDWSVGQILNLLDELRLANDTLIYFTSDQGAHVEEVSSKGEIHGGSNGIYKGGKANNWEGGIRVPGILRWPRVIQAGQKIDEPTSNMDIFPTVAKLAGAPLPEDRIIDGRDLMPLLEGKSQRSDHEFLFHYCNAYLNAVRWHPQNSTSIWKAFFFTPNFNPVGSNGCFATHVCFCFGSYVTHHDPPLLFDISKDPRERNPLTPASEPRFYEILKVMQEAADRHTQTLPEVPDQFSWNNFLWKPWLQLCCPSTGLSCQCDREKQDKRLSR

Steryl-sulfatase [2] = target: T1, Steryl-sulfatase; experiment: Inhibition of recombinant human estrone sulfatase expressed in CHO cells using 4-methylumbelliferyl sulfate as substrate by Hanes plot analysis; format: cell-based

Ki (Steryl-sulfatase [1]) [nM] | Ki (Steryl-sulfatase [2]) [nM] | Structure (SMILES)
500 |  | O=C(O)c1ccc2sc(C34CC5CC(CC(C5)C3)C4)cc(=O)c2c1
 | 890 | O=C(NN1[C@@H]2CC[C@H]1CC(C(=O)OCc1ccccc1)C2)NS(=O)(=O)c1ccc(Cl)cc1 (some centres not stated)
